This note sets out measurements from article PMC12155096 (International Journal of Molecular Sciences, 2025).

Structures can show the parent of a compound that is named as a salt. Where two headings read alike, the source gives them in different places.

In data set [1] the target is human CYP2C19 (Homo sapiens, UniProt P33261). Put plainly: biochemical. The conditions noted are these: for AC50: CYP2C19 AC50 (half-maximal activity concentration).
Data set [2] addresses human CYP2C9 (Homo sapiens, UniProt P11712). Nature of the data set: biochemical. The following applies: for AC50: CYP2C9 AC50 (half-maximal activity concentration).
Data set [3] addresses T1, human CYP2D6 (Homo sapiens, UniProt P10635). Nature of the data set: biochemical. The conditions noted are these: for AC50: CYP2D6 AC50 (half-maximal activity concentration).
For data set [4], the target named is T2, human CYP1A2 (Homo sapiens, UniProt P05177).
T2 sequence (P05177 1-516): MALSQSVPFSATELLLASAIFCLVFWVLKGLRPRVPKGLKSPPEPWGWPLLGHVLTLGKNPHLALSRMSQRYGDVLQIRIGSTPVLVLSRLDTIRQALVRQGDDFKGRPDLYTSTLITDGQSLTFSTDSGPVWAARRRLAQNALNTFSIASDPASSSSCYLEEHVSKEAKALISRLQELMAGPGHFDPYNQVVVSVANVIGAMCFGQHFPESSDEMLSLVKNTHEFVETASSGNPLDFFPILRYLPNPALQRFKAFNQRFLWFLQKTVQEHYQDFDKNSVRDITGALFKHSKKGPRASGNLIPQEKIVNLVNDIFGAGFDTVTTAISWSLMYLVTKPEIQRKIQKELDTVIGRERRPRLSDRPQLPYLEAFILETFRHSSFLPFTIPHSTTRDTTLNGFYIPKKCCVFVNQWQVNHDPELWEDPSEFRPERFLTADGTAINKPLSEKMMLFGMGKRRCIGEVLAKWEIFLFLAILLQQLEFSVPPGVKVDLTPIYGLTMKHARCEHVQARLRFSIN
Put plainly: biochemical. The following applies: for AC50: CYP1A2 AC50 (half-maximal activity concentration).

In data set [5] the target is T1, human CYP2D6. The following applies: human, 1 h.
Where [6] appears, read: CYP2C19 IC50 (half-maximal inhibitory concentration).
The mark [7] stands for this setting: CYP2C9 IC50 (half-maximal inhibitory concentration).
Setting [8] is: CYP2D6 IC50 (half-maximal inhibitory concentration).
The mark [9] stands for this setting: CYP1A2 IC50 (half-maximal inhibitory concentration).

T1 sequence (P10635 whole entry): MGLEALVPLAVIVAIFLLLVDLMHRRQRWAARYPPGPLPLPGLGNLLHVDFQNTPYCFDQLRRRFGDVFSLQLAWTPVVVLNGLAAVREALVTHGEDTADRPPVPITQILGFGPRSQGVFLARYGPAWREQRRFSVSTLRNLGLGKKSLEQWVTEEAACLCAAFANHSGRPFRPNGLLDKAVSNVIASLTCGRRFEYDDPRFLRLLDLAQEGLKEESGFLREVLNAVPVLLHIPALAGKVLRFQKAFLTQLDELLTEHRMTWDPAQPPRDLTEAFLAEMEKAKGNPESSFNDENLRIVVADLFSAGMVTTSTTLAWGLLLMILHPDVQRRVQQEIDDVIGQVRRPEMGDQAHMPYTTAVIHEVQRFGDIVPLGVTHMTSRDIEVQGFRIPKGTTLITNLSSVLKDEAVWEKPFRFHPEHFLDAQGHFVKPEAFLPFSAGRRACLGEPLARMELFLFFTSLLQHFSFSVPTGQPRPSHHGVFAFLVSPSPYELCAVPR
Sequence of human CYP2C19 (P33261 whole entry): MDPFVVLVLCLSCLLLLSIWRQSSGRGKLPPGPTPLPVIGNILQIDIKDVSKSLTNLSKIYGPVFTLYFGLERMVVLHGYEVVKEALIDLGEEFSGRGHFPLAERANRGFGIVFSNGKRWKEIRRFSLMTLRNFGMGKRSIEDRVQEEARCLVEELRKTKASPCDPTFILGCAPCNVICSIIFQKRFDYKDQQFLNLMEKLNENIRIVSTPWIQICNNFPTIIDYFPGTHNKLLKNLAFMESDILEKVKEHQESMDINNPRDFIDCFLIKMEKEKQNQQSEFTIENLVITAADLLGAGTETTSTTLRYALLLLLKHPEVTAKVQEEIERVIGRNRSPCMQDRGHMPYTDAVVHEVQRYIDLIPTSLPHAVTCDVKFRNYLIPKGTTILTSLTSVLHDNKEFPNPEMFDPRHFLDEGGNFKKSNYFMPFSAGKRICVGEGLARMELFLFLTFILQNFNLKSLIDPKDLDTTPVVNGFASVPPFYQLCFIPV
Sequence of human CYP2C9 (P11712 whole entry): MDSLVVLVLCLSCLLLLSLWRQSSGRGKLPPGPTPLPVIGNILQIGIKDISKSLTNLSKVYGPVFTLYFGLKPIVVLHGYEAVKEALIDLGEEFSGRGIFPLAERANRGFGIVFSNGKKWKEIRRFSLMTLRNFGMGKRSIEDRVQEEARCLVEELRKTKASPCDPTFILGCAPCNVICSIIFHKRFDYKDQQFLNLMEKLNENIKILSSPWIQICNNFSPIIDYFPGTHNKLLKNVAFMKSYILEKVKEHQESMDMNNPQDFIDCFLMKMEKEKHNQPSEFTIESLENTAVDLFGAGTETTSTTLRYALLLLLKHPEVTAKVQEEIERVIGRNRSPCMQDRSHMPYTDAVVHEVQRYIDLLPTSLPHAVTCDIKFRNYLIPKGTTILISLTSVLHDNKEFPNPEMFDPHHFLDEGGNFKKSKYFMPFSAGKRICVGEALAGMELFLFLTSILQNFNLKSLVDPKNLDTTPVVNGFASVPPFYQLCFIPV

For `CCCCOCCOCCOCc1cc2c(cc1CCC)OCO2` [Piperonyl butoxide], the IC50 in data set [1] (setting [6]) was found to be 0.5 µM; in data set [2] (setting [7]), 0.65 µM; in data set [3] (setting [8]), 6.78 µM; in data set [4] (setting [9]) it was 1.03 µM.

Regarding `CC(C)(C)C(O)C(Oc1ccc(Cl)cc1)n1cncn1` (centres unmarked) [Triadimenol], the half-maximal inhibitory concentration (IC50) in data set [1] (setting [6]) came to 1.38 µM; in data set [2] (setting [7]), 34.4 µM; in data set [3] (setting [8]), 65.1 µM; in data set [4] (setting [9]), 33.6 µM.

Take `CC1CCC(C(C)C)C(OC(=O)c2ccccc2N)C1` (centres unmarked) [Menthyl anthranilate]: the AC50 in data set [1] was 4.62 µM; in data set [2], 4.33 µM; in data set [3], 57.9 µM; in data set [4], 16.6 µM.

As for `Clc1cccc(C(c2ccc3[nH]cnc3c2)n2ccnc2)c1` (centres unmarked) [Liarozole], the IC50 in data set [1] is 7.61 ± 4.78 µM; in data set [2], 11.2 ± 2.55 µM; in data set [3] it was 31 ± 3.57 µM; in data set [4] it was 16.8 ± 1.09 µM. Also, the “CYP2D6 Efficacy (in parenthesis)” value in data set [5] is given as 31.04 ± 3.57 (-56 ± 13) %.

Regarding `COP(=S)(OC)SCN1C(=O)c2ccccc2C1=O` [Phosmet], the IC50 in data set [1] (setting [6]) stood at 0.47 µM; in data set [2] it was 2.04 µM; in data set [3], 24.6 µM; in data set [4] (setting [9]), 6.92 µM.

For `O[C@@H](COc1cccc2ncccc12)CN1CCN([C@@H]2c3ccccc3[C@@H]3[C@H](c4ccccc42)C3(F)F)CC1` [Zosuquidar trihydrochloride], the IC50 was found to be 20.4 µM in data set [1] (setting [6]), 9.14 µM in data set [2] (setting [7]), 15.2 µM in data set [3] (setting [8]) and 15.5 µM in data set [4] (setting [9]).

Turning to `COc1ccc(C(c2ccc(OC)cc2)C(Cl)(Cl)Cl)cc1` [Methoxychlor], the IC50 in data set [1] (setting [6]) stood at 0.86 µM; in data set [2] (setting [7]), 2.45 µM; in data set [3] (setting [8]) it was 35.5 µM; in data set [4] (setting [9]) it was 17.8 µM.

In the case of `CCCc1c(OCCCCc2nnn[nH]2)ccc(C(C)=O)c1O` [Tomelukast], the concentration for half-maximal inhibition (IC50) in data set [1] (setting [6]) was 0.15 µM; in data set [2] (setting [7]), 0.15 µM; in data set [3] (setting [8]), 31.7 µM; in data set [4] (setting [9]), 54.3 µM.

Turning to `CCN(CC)Cc1nccn1-c1ccc([N+](=O)[O-])cc1C(=O)c1ccccc1Cl` [Nizofenone], the IC50 was 18.8 µM in data set [1], 25.1 µM in data set [2], 2.98 µM in data set [3] and 19.8 µM in data set [4]. The “CYP2D6 Efficacy (in parenthesis)” value in data set [5] was 2.98 ± 0.19 (-103 ± 6) %.

With `CCCCCOc1ccccc1/C(=C\SC)n1ccnc1` [Neticonazole], the IC50 in data set [1] came to 3.49 ± 2.23 µM; in data set [2], 7.76 ± 3.93 µM; in data set [3] it was 7.69 ± 5.3 µM; in data set [4], 4.51 ± 2.88 µM.

With `CN1CCN(CCC(=O)N2c3ccccc3Sc3ccc(C(F)(F)F)cc32)CC1` [Ftormetazine], the values for the 50% inhibitory concentration (IC50) in data set [1] (setting [6]), in data set [3] (setting [8]) and in data set [4] (setting [9]) were 27 µM, 0.14 µM and 29.2 µM, respectively.

With `CC(=O)SCC(Cc1ccccc1)C(=O)NCC(=O)OCc1ccccc1` (centres unmarked) [Racecadotril], the IC50 in data set [1] (setting [6]) is 0.64 µM; in data set [2] (setting [7]) it was 3.34 µM; in data set [3] (setting [8]), 1.24 µM; in data set [4] (setting [9]), 15.1 µM.

In the case of `CC(C)OC(=O)c1cc(C(=O)OC(C)C)cc([N+](=O)[O-])c1` [Nitrothal-isopropyl], the IC50 amounted to 0.52 µM in data set [1], 1.06 µM in data set [2], 6.51 µM in data set [3] and 2.34 µM in data set [4].

Consider `O=C(OCC(O)CO)c1ccccc1Nc1ccnc2c(C(F)(F)F)cccc12` (centres unmarked) [Floctafenine], for which the IC50 in data set [1] came to 0.35 µM; in data set [2] it was 10.2 ± 0.69 µM; in data set [3], 23.6 ± 7.75 µM; in data set [4], 2.91 ± 0.17 µM.

For the compound `CC(Cc1cccc(C(F)(F)F)c1)NCCOC(=O)c1ccccc1` (centres unmarked) [Benfluorex hydrochloride], the IC50 in data set [1] (setting [6]) turned out to be 6.95 µM; in data set [2] (setting [7]), 25.3 µM; in data set [3] (setting [8]), 0.08 µM; in data set [4] (setting [9]), 2.6 µM.

Take `COc1ccc2c(c1OC)CN1CCc3cc4c(cc3[C@@H]1C2)OCO4` [Canadine]: the IC50 was 1.25 µM in data set [1] (setting [6]), 26.4 µM in data set [2] (setting [7]), 0.26 µM in data set [3] (setting [8]) and 9.1 µM in data set [4] (setting [9]).

Take `COCCOC(=O)C1=C(C)NC(C)=C(C(=O)OC/C=C/c2ccccc2)C1c1cccc([N+](=O)[O-])c1` (centres unmarked) [Cilnidipine]: the IC50 in data set [1] (setting [6]) came out at 1.75 µM; in data set [2] (setting [7]), 0.21 µM; in data set [3] (setting [8]), 29.2 µM; in data set [4] (setting [9]) it was 15.6 µM.

For `CNC(=O)Oc1ccc2c(c1)[C@]1(C)CCN(C)[C@@H]1N2C` [Physostigmine], the IC50 in data set [1] (setting [6]) came out at 45.4 µM; in data set [2] (setting [7]), 80 µM; in data set [3] (setting [8]), 0.59 µM; in data set [4] (setting [9]), 55.4 µM.

As to `C[C@]12Cc3c[nH]nc3C[C@@H]1CC[C@@H]1[C@@H]2CC[C@@]2(C)[C@H]1CC[C@]2(C)O` [Stanozolol], the half-inhibitory concentration (IC50) in data set [1] (setting [6]) amounted to 0.55 µM; in data set [2] (setting [7]), 0.94 µM; in data set [3] (setting [8]) it was 10.8 µM; in data set [4] (setting [9]) it was 21.5 µM.

For the compound `CC(C)(C)C(=O)C(Oc1ccc(Cl)cc1)n1ccnc1` (centres unmarked) [Climbazole], the IC50 in data set [1] (setting [6]) was 1.56 µM; in data set [2] (setting [7]), 3.23 µM; in data set [3] (setting [8]), 28.7 µM; in data set [4] (setting [9]), 16.1 µM.

In the case of `CCOC(=O)[C@H](CCc1ccccc1)N[C@H]1CCc2ccccc2N(CC(=O)O)C1=O` [Benazepril], the IC50 in data set [1] (setting [6]) worked out at 6.84 µM; in data set [2] (setting [7]), 7.32 µM; in data set [3] (setting [8]), 29.2 µM; in data set [4] (setting [9]) it was 14 µM.

As to `CCN(CC)CCOc1ccccc1C(=O)CCc1ccccc1` [Etafenone], the IC50 in data set [1] turned out to be 35.6 ± 11.4 µM; in data set [3], 0.64 ± 0.08 µM; in data set [4], 6.05 ± 1.51 µM.

As for `CCCCCC(C=O)=Cc1ccccc1` [Pentylcinnamaldehyde], the AC50 amounted to 30.2 µM in data set [1], 37 µM in data set [2], 49.4 µM in data set [3] and 29.1 µM in data set [4].

As for `CC(CCc1ccccc1)NC(C)C(O)c1ccc(O)cc1` (centres unmarked) [Nylidrin], the AC50 in data set [1] amounted to 9.42 µM; in data set [3] it was 0.49 µM; in data set [4] it was 13.6 µM. Also, the IC50 in data set [1] (setting [6]) worked out at 9.42 µM; in data set [3] (setting [8]) it was 0.49 µM; in data set [4] (setting [9]) it was 13.6 µM.

As for `CC(COc1ccccc1)NC(C)C(O)c1ccc(O)cc1` (centres unmarked) [Isoxsuprine hydrochloride], the half-maximal activity concentration (AC50) in data set [1] was found to be 7.99 µM; in data set [2], 14.9 µM; in data set [3] it was 0.55 µM; in data set [4], 16.1 µM. In addition, the IC50 in data set [1] (setting [6]) came to 7.99 µM; in data set [2] (setting [7]), 14.9 µM; in data set [3] (setting [8]), 0.55 µM; in data set [4] (setting [9]) it was 16.1 µM.

For the compound `C/C(=C(/OCCOc1ccc(Cl)cc1)c1ccc(Cl)cc1Cl)n1ccnc1` [Omoconazole], the IC50 in data set [1] worked out at 0.92 ± 0.4 µM; in data set [2] it was 0.87 ± 0.1 µM; in data set [3], 1.67 ± 0.11 µM; in data set [4] it was 2.5 ± 0.24 µM.

For the compound `COc1c2occc2c(OC)c2c(=O)cc(C)oc12` [Khellin], the half-inhibitory concentration (IC50) in data set [1] (setting [6]) is 6.65 µM; in data set [2] (setting [7]), 14.4 µM; in data set [3] (setting [8]), 14.5 µM; in data set [4] (setting [9]), 0.15 µM.

Regarding `CCOC(=O)C1=C(C)NC(C)=C(C(=O)OCC)C1c1ccccc1/C=C/C(=O)OC(C)(C)C` [Lacidipine], the half-inhibitory concentration (IC50) in data set [1] (setting [6]) came to 6.72 µM; in data set [2] (setting [7]), 1.29 µM; in data set [3] (setting [8]), 15.7 µM; in data set [4] (setting [9]), 23.9 µM.

For the compound `Cc1[nH]cnc1CN1CCc2c(c3ccccc3n2C)C1=O` [Alosetron hydrochloride], the half-inhibitory concentration (IC50) is 27.8 µM in data set [1] (setting [6]), 1.66 µM in data set [2] (setting [7]), 10.8 µM in data set [3] (setting [8]) and 0.89 µM in data set [4] (setting [9]).

As a reminder, the IC50 is the concentration that inhibits the measured activity by half. A lower IC50 goes with inhibition by little substance. By AC50 is commonly meant the concentration at which the activity in the assay is half-maximal. A low value points to activity at low concentration.
